Experimental data as given in patent publication US20160137610A1, “Compounds that Modulate EGFR Activity and Methods for Treating or Preventing Conditions Therewith” (Gatekeeper Pharmaceuticals, Inc., priority 2010, published 2016).

Experiments:
Type in all cases: cell-based
[1] = molecular target: Ba/F3 cells EGFR L858R/T790M (Homo sapiens, UniProt P00533, T790M/L858R, cells depend on it); test: Cell proliferation/growth MTS assay in EGFR mutant Ba/F3 cells; details: 72 hours, read-out: IC50 (nM) in Ba/F3 Cells, EGFR L858R/T790M
From the text: (§1) The EGFR and iERBB2 mutant Ba/F3 cells and the NIH-3T3 cells have been previously characterized (Engelman, J. A. et al. Cancer Res 67, 11924-32 (2007); Yuza, Y. et al. Cancer Biol Ther 6 (2007)). The EGFR C797S and the ERBB2 T798I mutations are introduced using site directed mutagenesis using the Quick Change Site-Directed Mutagenesis kit (Stratagene; La Jolla, Calif.) according to the manufacturer's instructions (Mukohara, T. et al. J Natl Cancer Inst 97, 1185-94 (2005)). The oligonucleotide sequences are available upon request. All constructs are confirmed by DNA sequencing. The constructs are shuttled into the retroviral vector JP1540 using the BD Creator™ System (BD Biosciences). Ba/F3 of NIH-3T3 cells are infected with retrovirus according to standard protocols, as described previously (Engelman, J. A. et al. Proc Natl Acad Sci USA 102, 3788-93 (2005); Zhao, J. J. et al. Cancer Cell 3, 483-95 (2003)). Stable populations are obtained by selection in puromycin (2 μg/ml).
(§2) Growth and inhibition of growth is assessed by MTS assay. This assay, a colorimetric method for determining the number of viable cells, is based on the bioreduction of 3-(4,5-dimethylthiazol-2-yl)-5-(3-carboxymethoxyphenyl)-2-(4-sulfophenyl)-2H-tetrazolium (MTS) by cells to a formazan product that is soluble in cell culture medium, can be detected spectrophotometrically and was performed according to previously established methods (Mukohara, T. et al. J Natl Cancer Inst 97, 1185-94 (2005); Paez, J. G. et al. Science 304, 1497 500 (2004); Engelman, J. A. et al. J Clin Invest 116, 2695-2706 (2006). NSCLC or Ba/F3 cells are exposed to treatment for 72 hours and the number of cells used per experiment determined empirically and has been previously established. All experimental points are set up in six to twelve wells and all experiments are repeated at least three times. […] The curves are fitted using a non-linear regression model with a sigmoidal dose response.
(§3) Activity of various compounds of the invention was determined in vitro in EGFR mutant Ba/F3 cells according to the procedures set forth in Example 1.

Ba/F3 cells EGFR vIII = Ba/F3 cells EGFR vIII (Homo sapiens, UniProt P00533, DELINS30-297G, cells depend on it); test: as above; details: 72 hours, read-out: IC50 (nM) in Ba/F3 Cells, EGFR vIII
From the text: as §1, §2, §3

[2] = molecular target: Ba/F3 cells EGFR Del 19/T790M (Homo sapiens, UniProt P00533, DEL746-750/T790M, cells depend on it); test: as above; details: 72 hours, read-out: IC50 (nM) in Ba/F3 Cells, EGFR Del 19/T790M
From the text: as §1, §2, §3

A549 (KRAS G12) = test: Cell proliferation/growth MTS assay in NSCLC cell lines; details: Homo sapiens, 72 hours
[3] = tested on: PC9 GR (EGFR Del 19/T790M); test: as above; details: 72 hours
From the text: (§4) The EGFR mutant NSCLC cell lines HCC827 (del E746_A750), H3255 (L858R), HCC827 GR (del E746_A750/MET amplified), H1975 (L858R/T790M) and PC9 (del E746_A750) have been previously characterized (Amann., J. et al. Cancer Res 65, 226-35 (2005); Engelman, J. A. et al. Science 316, 1039-43 (2007); Ono, M. et al. Mol Cancer Ther 3, 465-72 (2004); Ogino, A. et al. Cancer Res 67, 7807-14 (2007)). The PC9 GR (del E746_A750/T790M) cells are generated and verified to contain del E746_A750 in cis with T790M. The ERBB2 amplified (Calu-3 and H1819) and mutant (H1781) are obtained from ATCC. […]
(§5) Growth and inhibition of growth is assessed by MTS assay. This assay, a colorimetric method for determining the number of viable cells, is based on the bioreduction of 3-(4,5-dimethylthiazol-2-yl)-5-(3-carboxymethoxyphenyl)-2-(4-sulfophenyl)-2H-tetrazolium (MTS) by cells to a formazan product that is soluble in cell culture medium, can be detected spectrophotometrically and was performed according to previously established methods (Mukohara, T. et al. J Natl Cancer Inst 97, 1185-94 (2005); Paez, J. G. et al. Science 304, 1497 500 (2004); Engelman, J. A. et al. J Clin Invest 116, 2695-2706 (2006). NSCLC or Ba/F3 cells are exposed to treatment for 72 hours and the number of cells used per experiment determined empirically and has been previously established. […]

PC9 (EGFR Del 19) = test: as above; details: 72 hours
From the text: as §4, §5

Ba/F3 cells EGFR L858R/T790M, sequence (P00533 whole entry T790M/L858R): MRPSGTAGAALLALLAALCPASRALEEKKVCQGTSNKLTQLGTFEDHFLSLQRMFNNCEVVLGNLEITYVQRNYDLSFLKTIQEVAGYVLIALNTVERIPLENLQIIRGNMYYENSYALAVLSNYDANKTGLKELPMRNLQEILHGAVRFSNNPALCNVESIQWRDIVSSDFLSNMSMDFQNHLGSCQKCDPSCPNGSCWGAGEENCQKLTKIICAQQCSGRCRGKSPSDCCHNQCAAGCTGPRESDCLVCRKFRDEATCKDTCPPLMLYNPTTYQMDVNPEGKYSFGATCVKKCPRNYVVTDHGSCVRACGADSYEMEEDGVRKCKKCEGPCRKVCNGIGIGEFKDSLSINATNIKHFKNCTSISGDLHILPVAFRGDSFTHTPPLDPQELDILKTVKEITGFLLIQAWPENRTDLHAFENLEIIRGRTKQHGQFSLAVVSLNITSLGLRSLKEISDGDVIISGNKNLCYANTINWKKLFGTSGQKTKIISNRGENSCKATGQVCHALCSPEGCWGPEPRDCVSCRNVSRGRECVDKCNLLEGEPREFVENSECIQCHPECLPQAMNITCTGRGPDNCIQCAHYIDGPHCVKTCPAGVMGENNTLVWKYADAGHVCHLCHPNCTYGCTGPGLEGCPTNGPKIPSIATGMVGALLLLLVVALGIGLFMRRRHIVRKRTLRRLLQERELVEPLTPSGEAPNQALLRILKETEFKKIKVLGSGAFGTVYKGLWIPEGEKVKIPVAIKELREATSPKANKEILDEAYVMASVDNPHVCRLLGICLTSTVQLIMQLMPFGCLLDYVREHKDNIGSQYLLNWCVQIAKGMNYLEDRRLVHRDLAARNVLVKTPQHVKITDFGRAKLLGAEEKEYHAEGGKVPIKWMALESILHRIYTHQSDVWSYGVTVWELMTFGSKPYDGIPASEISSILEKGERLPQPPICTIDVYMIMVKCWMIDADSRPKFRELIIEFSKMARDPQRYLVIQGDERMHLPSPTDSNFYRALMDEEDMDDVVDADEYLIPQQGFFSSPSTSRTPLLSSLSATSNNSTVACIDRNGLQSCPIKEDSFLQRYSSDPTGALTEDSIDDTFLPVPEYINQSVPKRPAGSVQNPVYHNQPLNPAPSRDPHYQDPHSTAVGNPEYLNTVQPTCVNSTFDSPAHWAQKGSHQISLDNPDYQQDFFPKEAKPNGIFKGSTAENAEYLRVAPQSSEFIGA
Ba/F3 cells EGFR Del 19/T790M, sequence (P00533 with tags, fused parts or gaps DEL746-750/T790M): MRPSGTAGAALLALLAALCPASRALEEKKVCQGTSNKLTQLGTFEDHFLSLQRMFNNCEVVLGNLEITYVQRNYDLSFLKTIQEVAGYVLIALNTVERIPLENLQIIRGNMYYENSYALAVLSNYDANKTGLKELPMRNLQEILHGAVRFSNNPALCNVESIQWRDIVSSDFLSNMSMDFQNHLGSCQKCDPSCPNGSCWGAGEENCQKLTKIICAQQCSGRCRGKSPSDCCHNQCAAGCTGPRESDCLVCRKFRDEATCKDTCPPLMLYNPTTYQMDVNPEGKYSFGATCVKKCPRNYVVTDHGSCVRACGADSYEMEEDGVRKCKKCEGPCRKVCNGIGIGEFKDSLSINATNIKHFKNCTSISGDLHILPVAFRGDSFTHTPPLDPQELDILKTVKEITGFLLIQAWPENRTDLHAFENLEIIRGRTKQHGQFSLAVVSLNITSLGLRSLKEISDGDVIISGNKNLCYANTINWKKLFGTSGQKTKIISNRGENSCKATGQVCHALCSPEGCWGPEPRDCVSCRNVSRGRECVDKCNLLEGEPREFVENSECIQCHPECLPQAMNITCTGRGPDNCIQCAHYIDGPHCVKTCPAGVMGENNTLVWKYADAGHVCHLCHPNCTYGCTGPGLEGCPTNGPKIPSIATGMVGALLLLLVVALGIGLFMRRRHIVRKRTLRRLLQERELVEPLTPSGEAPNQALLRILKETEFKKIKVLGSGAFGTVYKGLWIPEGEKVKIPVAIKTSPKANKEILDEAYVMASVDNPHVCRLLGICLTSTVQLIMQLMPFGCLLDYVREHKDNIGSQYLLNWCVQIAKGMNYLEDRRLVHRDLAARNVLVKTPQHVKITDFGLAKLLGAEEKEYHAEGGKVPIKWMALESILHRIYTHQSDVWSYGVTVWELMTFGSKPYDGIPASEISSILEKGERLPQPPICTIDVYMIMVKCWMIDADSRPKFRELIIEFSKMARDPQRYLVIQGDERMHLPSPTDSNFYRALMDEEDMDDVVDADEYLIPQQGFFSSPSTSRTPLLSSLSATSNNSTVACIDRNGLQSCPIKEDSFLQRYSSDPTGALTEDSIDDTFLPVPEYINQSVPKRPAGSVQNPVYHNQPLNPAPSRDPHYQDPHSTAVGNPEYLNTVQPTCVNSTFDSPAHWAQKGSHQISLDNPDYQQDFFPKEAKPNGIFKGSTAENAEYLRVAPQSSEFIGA
Ba/F3 cells EGFR vIII, sequence (P00533 with tags, fused parts or gaps DELINS30-297G): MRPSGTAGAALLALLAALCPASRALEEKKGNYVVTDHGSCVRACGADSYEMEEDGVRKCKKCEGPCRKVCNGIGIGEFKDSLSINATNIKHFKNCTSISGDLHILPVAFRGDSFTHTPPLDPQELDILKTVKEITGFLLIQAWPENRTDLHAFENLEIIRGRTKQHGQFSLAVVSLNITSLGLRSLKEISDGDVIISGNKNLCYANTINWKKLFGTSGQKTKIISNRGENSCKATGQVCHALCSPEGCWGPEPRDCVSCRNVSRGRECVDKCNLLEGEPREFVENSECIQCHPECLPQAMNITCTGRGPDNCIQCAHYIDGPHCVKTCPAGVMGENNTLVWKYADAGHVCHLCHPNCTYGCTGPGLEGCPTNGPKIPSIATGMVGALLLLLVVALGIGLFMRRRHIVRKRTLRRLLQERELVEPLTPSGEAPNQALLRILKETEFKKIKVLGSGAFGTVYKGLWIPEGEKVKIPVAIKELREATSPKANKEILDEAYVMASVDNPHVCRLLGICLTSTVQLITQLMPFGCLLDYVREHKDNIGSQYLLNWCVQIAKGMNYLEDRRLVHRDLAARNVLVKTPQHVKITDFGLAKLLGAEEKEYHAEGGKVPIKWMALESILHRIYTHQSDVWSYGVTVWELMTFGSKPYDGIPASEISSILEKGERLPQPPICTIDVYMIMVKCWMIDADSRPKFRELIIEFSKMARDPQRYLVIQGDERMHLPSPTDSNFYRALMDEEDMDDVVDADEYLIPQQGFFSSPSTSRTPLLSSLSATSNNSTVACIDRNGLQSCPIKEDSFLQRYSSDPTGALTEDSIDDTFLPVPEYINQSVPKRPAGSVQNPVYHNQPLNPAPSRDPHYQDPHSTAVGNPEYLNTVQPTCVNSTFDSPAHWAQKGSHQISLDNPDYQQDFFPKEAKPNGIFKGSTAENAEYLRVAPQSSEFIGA

Row | Structure (SMILES) | GI50 [1] [nM] | GI50 (Ba/F3 cells EGFR vIII) [nM] | GI50 [2] [nM] | IC50 (A549 (KRAS G12)) [nM] | IC50 [3] [nM] | IC50 (PC9 (EGFR Del 19)) [nM]
1 | C=CC(=O)Nc1cccc(Nc2ncc(Cl)c(Nc3ccccc3C(=O)NC)n2)c1 [Compound XIII-1, 2-((2-((3-acrylamidophenyl)amino)-5-chloropyrimidin-4-yl)amino)-N-methylbenzamide] | 6 | 3 | 3 | 814 | – | –
2 | C=CC(=O)Nc1ccc(OC)c(Nc2ncc(Cl)c(Nc3ccccc3C(=O)NC)n2)c1 [Compound XIII-2, 2-((2-((5-acrylamido-2-methoxyphenyl)amino)-5-chloropyrimidin-4-yl)amino)-N-methylbenzamide] | 65 | 570 | 56 | > 3300 | 104 | 118

More lines, now with the values ahead:

Row | GI50 [1] [nM] | GI50 (Ba/F3 cells EGFR vIII) [nM] | GI50 [2] [nM] | IC50 (A549 (KRAS G12)) [nM] | IC50 [3] [nM] | IC50 (PC9 (EGFR Del 19)) [nM] | Structure (SMILES)
3 | 721 | – | 670 | – | – | – | C=CC(=O)Nc1cccc(CNc2ncc(Cl)c(Nc3ccccc3S(=O)(=O)C(C)C)n2)c1 [Compound XIII-3, N-(3-(((5-chloro-4-((2-(isopropylsulfonyl)phenyl)amino)pyrimidin-2-yl)amino)methyl)phenyl)acrylamide]
4 | 17 | – | 7 | – | – | – | C=CC(=O)Nc1cccc(Nc2ncc(Cl)c(Nc3ccccc3S(=O)(=O)C(C)C)n2)c1 [Compound XIII-4, N-(3-((5-chloro-4-((2-(isopropylsulfonyl)phenyl)amino)pyrimidin-2-yl)amino)phenyl)acrylamide]
5 | 9 | – | 11 | – | – | – | C=CC(=O)Nc1cccc(Nc2ncc(Cl)c(Nc3ccccc3S(=O)(=O)NC)n2)c1 [Compound XIII-5, N-(3-((5-chloro-4-((2-(N-methylsulfamoyl)phenyl)amino)pyrimidin-2-yl)amino)phenyl)acrylamide]
